Reference: patent US9540343B2 (Gilead Sciences, Inc., priority 2011, dated 2017)

Tests used:
HIV-IIIb = experiment: Test A: Antiviral assay in MT4 cells; type: cell-based, HIV-1; details: Human immunodeficiency virus 1, IIIB, MT4, 120 h, read-out: % inhibition at 2 μM, percent inhibition of virus-induced cell killing, from dose response curve at 2 uM drug; MT-4 cells infected with HIV-IIIb, 5 days, CellTiter-Glo
in vitro = details: human, uninfected MT-4 cells, CC50 (nM), same protocol as Test A, CellTiter-Glo
Procedure, shortened: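 Cytoprotection read-out: CellTiter-Glo chemiluminescence after 5 days at 37 °C of HIV-IIIb-infected MT-4 cells (m.o.i. 0.003) with compound in 10-point 3-fold dilutions, quadruplicate, 10% FBS. Cytotoxicity (CC50) measured identically without virus.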

Work on `NC(=O)c1cc(-c2cccnc2[C@H](Cc2cc(F)cc(F)c2)NC(=O)Cn2nc(C(F)F)c3c2C2CC(C2)C3=O)ccc1F` [Example 397, (S)-5-(2-(2-(3,5-difluorophenyl)-1-(2-(4,5,6,7-tetrahydro-3-difluoromethyl-4-oxo-5,7-(methano)indazol-1-yl)acetamido)ethyl)pyridin-3-yl)-2-fluorobenzamide] yielded an inhibition at 2 µM (HIV-IIIb) of 26% and a CC50 at 5 days (in vitro) of over 53200 nM.
Compound `NC(=O)c1cc(-c2cccnc2[C@H](Cc2cc(F)cc(F)c2)NC(=O)Cn2nc3c(c2C(F)F)C2CC2C3=O)ccc1F` (stereo partly drawn) [Example 220B, 5-(2-((1S)-1-(2-(3-(difluoromethyl)-5-oxo-3b,4,4a,5-tetrahydro-2H-cyclopropa[3,4]cyclopenta[1,2-c]pyrazol-2-yl)acetamido)-2-(3,5-difluorophenyl)ethyl)pyridin-3-yl)-2-fluorobenzamide] has an inhibition at 2 µM (HIV-IIIb) of 70% and a CC50 at 5 days (in vitro) of 39200 nM.
For `NC(=O)c1cc(-c2cccnc2[C@H](Cc2cc(F)cc(F)c2)NC(=O)Cn2nc(OCc3ncccn3)c3c2CCCC3)ccc1F` [Example 142C, (S)-5-(2-(2-(3,5-difluorophenyl)-1-(2-(3-(pyrimidin-2-ylmethoxy)-4,5,6,7-tetrahydro-1H-indazol-1-yl)acetamido)ethyl)pyridin-3-yl)-2-fluorobenzamide], the inhibition at 2 µM (HIV-IIIb) was 23% and the CC50 at 5 days (in vitro) was over 53200 nM.
With `COC1CN(C(=O)c2cc(C(C)C)nn2CC(=O)N[C@@H](Cc2cc(F)cc(F)c2)c2ncccc2-c2ccc(F)c(C(N)=O)c2)C1` [Example 598, (S)-5-(2-(2-(3,5-difluorophenyl)-1-(2-(3-isopropyl-5-(3-methoxyazetidine-1-carbonyl)-1H-pyrazol-1-yl)acetamido)ethyl)pyridin-3-yl)-2-fluorobenzamide] the inhibition at 2 µM (HIV-IIIb) was 3% and the CC50 at 5 days (in vitro) was over 53200 nM.
`NC(=O)c1cc(-c2cccnc2[C@H](Cc2cc(F)cc(F)c2)NC(=O)Cc2nc3cccc4c3n2CCC4)ccc1F` [Example 152D, (S)-5-(2-(2-(3,5-difluorophenyl)-1-(2-(5,6-dihydro-4H-imidazo[4,5,1-ij]quinolin-2-yl)acetamido)ethyl)pyridin-3-yl)-2-fluorobenzamide] showed an inhibition at 2 µM (HIV-IIIb) of 81% and a CC50 at 5 days (in vitro) of 28400 nM.
Compound `NC(=O)c1cc(-c2cccnc2[C@H](Cc2cc(F)cc(F)c2)NC(=O)Cn2nc(C(F)F)c3c2C(O)C2CC32)ccc1F` (stereo partly drawn) [Example 212, 5-(2-((1S)-1-(2-(3-(difluoromethyl)-5-hydroxy-3b,4,4a,5-tetrahydro-1H-cyclopropa[3,4]cyclopenta[1,2-c]pyrazol-1-yl)acetamido)-2-(3,5-difluorophenyl)ethyl)pyridin-3-yl)-2-fluorobenzamide] has an inhibition at 2 µM (HIV-IIIb) of 69% and a CC50 at 5 days (in vitro) of over 53200 nM.
`Cc1ccccc1-c1cccnc1C(Cc1ccccc1)NC(=O)Cn1nc(C(F)(F)F)c2c1CCCC2` (stereo not drawn) [Example 2, N-(2-phenyl-1-(3-(o-tolyl)pyridin-2-yl)ethyl)-2-(3-(trifluoromethyl)-4,5,6,7-tetrahydro-1H-indazol-1-yl)acetamide] gave an inhibition at 2 µM (HIV-IIIb) of 29% and a CC50 at 5 days (in vitro) of 14000 nM.
Work on `Cc1[nH]c2ccc(F)cc2c1CC(=O)N[C@@H](Cc1cc(F)cc(F)c1)c1ncccc1-c1cccc(C(N)=O)c1` [Example 517E, (S)-3-(2-(2-(3,5-difluorophenyl)-1-(2-(5-fluoro-2-methyl-1H-indol-3-yl)acetamido)ethyl)pyridin-3-yl)benzamide] yielded an inhibition at 2 µM (HIV-IIIb) of 87% and a CC50 at 5 days (in vitro) of 19100 nM.
Compound `CC(=O)Nc1cc(-c2cccnc2[C@H](Cc2cc(F)cc(F)c2)NC(=O)Cc2c[nH]c3ccc(F)cc23)ccc1F` [Example 473, (S)—N-(1-(3-(3-acetamido-4-fluorophenyl)pyridin-2-yl)-2-(3,5-difluorophenyl)ethyl)-2-(5-fluoro-1H-indol-3-yl)acetamide] has an inhibition at 2 µM (HIV-IIIb) of 18% and a CC50 at 5 days (in vitro) of 14600 nM.
`NC(=O)c1cc(-c2cccnc2[C@H](Cc2cc(F)cc(F)c2)NC(=O)Cc2cccc3ccccc23)ccc1F` [Example 214, (S)-5-(2-(2-(3,5-difluorophenyl)-1-(2-(naphthalen-1-yl)acetamido)ethyl)pyridin-3-yl)-2-fluorobenzamide] gave an inhibition at 2 µM (HIV-IIIb) of 8% and a CC50 at 5 days (in vitro) of 22200 nM.
For `NC(=O)c1cc(-c2cccnc2[C@H](Cc2cc(F)cc(F)c2)NC(=O)Cn2nc(C(F)(F)F)c3c2COC3)ccc1F` [Example 258, (S)-5-(2-(2-(3,5-difluorophenyl)-1-(2-(3-(trifluoromethyl)-4,6-dihydro-1H-furo[3,4-c]pyrazol-1-yl)acetamido)ethyl)pyridin-3-yl)-2-fluorobenzamide], the inhibition at 2 µM (HIV-IIIb) was 8% and the CC50 at 5 days (in vitro) was over 53200 nM.
With `Cc1ccc2c(c1)C(CC(=O)N[C@@H](Cc1cc(F)cc(F)c1)c1ncccc1-c1ccc(F)c(C(N)=O)c1)C(=O)N2` (stereo partly drawn) [Example 193, 5-(2-((1S)-2-(3,5-difluorophenyl)-1-(2-(5-methyl-2-oxoindolin-3-yl)acetamido)ethyl)pyridin-3-yl)-2-fluorobenzamide] the inhibition at 2 µM (HIV-IIIb) was 2% and the CC50 at 5 days (in vitro) was over 53200 nM.
`O=C(Cc1c[nH]c2ccc(F)cc12)N[C@@H](Cc1cc(F)cc(F)c1)c1ncccc1-c1cc(Cl)cc(Cl)c1` [Example 422] showed an inhibition at 2 µM (HIV-IIIb) of 0% and a CC50 at 5 days (in vitro) of 6760 nM.
With `NC(=O)c1cc(-c2cccnc2[C@H](Cc2cc(F)cc(F)c2)NC(=O)Cn2nc(C(F)(F)OCc3ccccn3)c3c2CCCC3)ccc1F` [Example 135, (S)-5-(2-(1-(2-(3-(difluoro(pyridin-2-ylmethoxy)methyl)-4,5,6,7-tetrahydro-1H-indazol-1-yl)acetamido)-2-(3,5-difluorophenyl)ethyl)pyridin-3-yl)-2-fluorobenzamide] the inhibition at 2 µM (HIV-IIIb) was 53% and the CC50 at 5 days (in vitro) was 21100 nM.
For `NC(=O)c1cc(-c2cccnc2[C@H](Cc2cc(F)cc(F)c2)NC(=O)Cn2nc(C(F)(F)F)c3c2CCC(F)(F)C3)ccc1F` [Example 150, (S)-5-(2-(1-(2-(5,5-difluoro-3-(trifluoromethyl)-4,5,6,7-tetrahydro-1H-indazol-1-yl)acetamido)-2-(3,5-difluorophenyl)ethyl)pyridin-3-yl)-2-fluorobenzamide], the inhibition at 2 µM (HIV-IIIb) was 15% and the CC50 at 5 days (in vitro) was 18400 nM.
In the case of `NC(=O)c1cccc(-c2cccnc2[C@H](Cc2cc(F)cc(F)c2)NC(=O)Cc2c[nH]c3ccc(=O)[nH]c23)c1` [Example 51, (S)-3-(2-(2-(3,5-difluorophenyl)-1-(2-(5-oxo-4,5-dihydro-1H-pyrrolo[3,2-b]pyridin-3-yl)acetamido)ethyl)pyridin-3-yl)benzamide], the inhibition at 2 µM (HIV-IIIb) is reported as 52% and the CC50 at 5 days (in vitro) is reported as over 53000 nM.
With `N#Cc1cccc(-c2cccnc2[C@H](Cc2cc(F)cc(F)c2)NC(=O)Cc2c[nH]c3ccc(O)cc23)c1` [Example 38E, (S)—N-(1-(3-(3-cyanophenyl)pyridin-2-yl)-2-(3,5-difluorophenyl)ethyl)-2-(5-hydroxy-1H-indol-3-yl)acetamide] the inhibition at 2 µM (HIV-IIIb) was 86% and the CC50 at 5 days (in vitro) was 28600 nM.
Work on `NC(=O)c1cc(-c2cncnc2[C@H](Cc2cc(F)cc(F)c2)NC(=O)Cn2nc(C(F)(F)F)c3c2CC2CC32)ccc1F` (stereo partly drawn) [Example 136D, 5-(4-((1S)-2-(3,5-difluorophenyl)-1-(2-(3-(trifluoromethyl)-3b,4,4a,5-tetrahydro-1H-cyclopropa[3,4]cyclopenta[1,2-c]pyrazol-1-yl)acetamido)ethyl)pyrimidin-5-yl)-2-fluorobenzamide] yielded an inhibition at 2 µM (HIV-IIIb) of 88% and a CC50 at 5 days (in vitro) of 27800 nM.
Work on `CN1CCc2c(C(F)(F)F)nn(CC(=O)N[C@@H](Cc3cc(F)cc(F)c3)c3ncccc3-c3ccc(F)c(C(N)=O)c3)c2C1` [Example 388, (S)-5-(2-(2-(3,5-difluorophenyl)-1-(2-(6-methyl-3-(trifluoromethyl)-4,5,6,7-tetrahydro-1H-pyrazolo[3,4-c]pyridin-1-yl)acetamido)ethyl)pyridin-3-yl)-2-fluorobenzamide] yielded an inhibition at 2 µM (HIV-IIIb) of 54% and a CC50 at 5 days (in vitro) of over 53200 nM.
Work on `O=C1Cc2cc(-c3cccnc3[C@H](Cc3cc(F)cc(F)c3)NC(=O)Cn3nc(C(F)F)c4c3C(F)(F)C3CC43)ccc2N1` (stereo partly drawn) [Example 400, (S)—N-(1-(3-(oxindole-5-yl)-pyridin-2-yl)-2-(3,5-difluorophenyl)ethyl)-2-(3-(difluoromethyl)-5,6-dihydro-4,5-(methano)-6,6-difluoro-cyclopenta[c]pyrazol-1(4H)-yl)acetamide] yielded an inhibition at 2 µM (HIV-IIIb) of 45% and a CC50 at 5 days (in vitro) of 23300 nM.
Work on `O=C(Cn1nc(C(F)F)c2c1C(F)(F)C1CC21)N[C@@H](Cc1cc(F)cc(F)c1)c1ncccc1-c1ccc2nccn2c1` (stereo partly drawn) [Example 438, (S)—N-(1-(3-(imidazo[1,2-a]pyridine-6-yl)-pyridin-2-yl)-2-(3,5-difluorophenyl)ethyl)-2-(3-(difluoromethyl)-5,6-dihydro-4,5-(methano)-6,6-difluoro-cyclopenta[c]pyrazol-1(4H)-yl)acetamide] yielded an inhibition at 2 µM (HIV-IIIb) of 81% and a CC50 at 5 days (in vitro) of 12100 nM.
Work on `O=C(Cn1nc(C(F)(F)F)c2c1CCCC2)N[C@@H](Cc1cc(F)cc(F)c1)c1ncccc1-c1cnc2[nH]ccc2c1` [Example 407, (S)—N-(1-(3-(1H-pyrrolo[2,3-b]pyridin-5-yl)pyridin-2-yl)-2-(3,5-difluorophenyl)ethyl)-2-(3-(trifluoromethyl)-4,5,6,7-tetrahydro-1H-indazol-1-yl)acetamide] yielded an inhibition at 2 µM (HIV-IIIb) of 102% and a CC50 at 5 days (in vitro) of 12000 nM.
In the case of `Cc1c(C2CC2)c(C(F)(F)F)nn1CC(=O)N[C@@H](Cc1cc(F)cc(F)c1)c1ncccc1-c1ccc(F)c(C(N)=O)c1` [Example 291, (S)-5-(2-(1-(2-(4-cyclopropyl-5-methyl-3-(trifluoromethyl)-1H-pyrazol-1-yl)acetamido)-2-(3,5-difluorophenyl)ethyl)pyridin-3-yl)-2-fluorobenzamide], the inhibition at 2 µM (HIV-IIIb) is reported as 86% and the CC50 at 5 days (in vitro) is reported as 16500 nM.
`NC(=O)c1cc(-c2cccnc2[C@H](Cc2cc(F)cc(F)c2)NC(=O)Cn2nc(C(F)(F)Oc3ccccc3)c3c2CCCC3)ccc1F` [Example 159, (S)-5-(2-(1-(2-(3-(difluoro(phenoxy)methyl)-4,5,6,7-tetrahydro-1H-indazol-1-yl)acetamido)-2-(3,5-difluorophenyl)ethyl)pyridin-3-yl)-2-fluorobenzamide] gave an inhibition at 2 µM (HIV-IIIb) of 84% and a CC50 at 5 days (in vitro) of 19100 nM.
